Biological target: T1, Sc-FAR-2 (Steinernema carpocapsae, UniProt A0A4U5NI02)
T1 construct: gene L596_016036; mature protein (signal peptide removed), N-terminal His6 tag cut off with TEV protease, E. coli BL21-CodonPlus, about 20 kDa family
Assay: fluorescence titration, one-site fit
Type: binding

T1 sequence (A0A4U5NI02 entry or part of it): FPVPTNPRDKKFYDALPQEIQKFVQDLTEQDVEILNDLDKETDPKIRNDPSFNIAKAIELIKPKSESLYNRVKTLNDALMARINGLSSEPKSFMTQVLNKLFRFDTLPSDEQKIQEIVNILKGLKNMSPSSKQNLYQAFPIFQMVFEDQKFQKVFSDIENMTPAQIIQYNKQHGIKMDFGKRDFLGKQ

CN(C)c1cccc2c(S(=O)(=O)NCCCCCCCCCCC(=O)O)cccc12 [DAUDA]
Kd: 21.8 µM
